What all share (assay type): cell-based
Assay [1] concerns Mycoplasma gallisepticum E-11. In words: antibacterial activity against Mycoplasma. Particulars: Mycoplasmoides gallisepticum, E11. The source says: (§1) Furthermore the new antibiotics according to the present invention also show antimicrobial activity on Mycoplasma. In particular, it is noteworthy that they have much higher antimicrobial activity than tylosin on Mycoplasma that is resistant to macrolide antibiotics. Tab.
(§2) *Macrolide resistant strain
(§3) **Medium (Eiken PPLO Medium)

For assay [2], the system named is Mycoplasma gallisepticum A-72. Description: antibacterial activity against Mycoplasma. Conditions: Mycoplasmoides gallisepticum, A72; strain A-72, macrolide resistant; Eiken PPLO Medium.
Text: as §1, §2, §3

For assay [3], the system named is Mycoplasma gallisepticum E-5. Description: antibacterial activity against Mycoplasma. Conditions: Mycoplasmoides gallisepticum, E5.
Text: as §1, §2, §3

Assay [4] relates to Mycoplasma gallisepticum KP-13. Description: antibacterial activity against Mycoplasma. Conditions: Mycoplasmoides gallisepticum, KP13; strain KP-13; Eiken PPLO Medium; read-out: MIC.
Text: as §1, §3

The test system of assay [5] is Bacillus cereus ATCC 9634. Description: antimicrobial activity, broth dilution method. Particulars: Bacillus cereus, ATCC9634, Bacillus cereus ATCC 9634; broth dilution; read-out: minimum inhibitory concentration (MIC). The gist of the method:
(§4)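 Broth dilution MICs were measured against pathogenic bacteria, including clinically isolated drug-resistant strains. Staphylococcus aureus MS-8710 is resistant to tylosin, penicillin, tetracycline, erythromycin and leucomycin, and Streptococcus pyogenes to tylosin, erythromycin, oleandomycin and leucomycin.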
Background: In broth dilution the organism is exposed to a series of concentrations in liquid medium.

In assay [6] the test system is Staphylococcus aureus SMITH. Description: antimicrobial activity, broth dilution method. Particulars: Staphylococcus aureus, Staphylococcus aureus SMITH; broth dilution; read-out: minimum inhibitory concentration (MIC). The procedure, abridged: (§5)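 Activity was measured by broth dilution against each strain. S. aureus MS-8710 is a clinical isolate resistant to tylosin, penicillin, tetracycline, erythromycin and leucomycin. The S. pyogenes strain is a clinical isolate resistant to tylosin, erythromycin, oleandomycin and leucomycin.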

A further assay has as its system Sarcina lutea ATCC 9341. Description: antimicrobial activity, broth dilution method. Conditions: Micrococcus luteus, ATCC9341, Sarcina lutea ATCC 9341, read-out: minimum inhibitory concentration (MIC). The gist of the method: as §4
Assay [7] deals with Staphylococcus aureus MS-9931. Description: antimicrobial activity, broth dilution method. Particulars: MS9931; Staphylococcus aureus MS-9931, drug-resistant clinical isolate; read-out: minimum inhibitory concentration (MIC). The procedure, abridged: as §4
The subject of assay [8] is Staphylococcus aureus FDA-209P. In words: antimicrobial activity, broth dilution method. Particulars: Staphylococcus aureus, FDA209P, Staphylococcus aureus FDA-209P; broth dilution; read-out: minimum inhibitory concentration (MIC). The procedure, abridged: as §5
In assay [9] the test system is Staphylococcus aureus MS-9937. Description: antimicrobial activity, broth dilution method. Conditions: MS9937; Staphylococcus aureus MS-9937, drug-resistant clinical isolate; read-out: minimum inhibitory concentration (MIC). The procedure, abridged:
as §4

Assay [10] relates to Staphylococcus aureus MS-8710. Description: antimicrobial activity, broth dilution method. Particulars: Staphylococcus aureus, MS8710, Staphylococcus aureus MS-8710, drug-resistant clinical isolate; read-out: minimum inhibitory concentration (MIC). The procedure, abridged:
as §4

Assay [11] deals with Streptococcus pyogenes MH-771. In words: antimicrobial activity, broth dilution method. Particulars: Streptococcus pyogenes, MH771, Streptococcus pyogenes MH-771, drug-resistant clinical isolate; read-out: minimum inhibitory concentration (MIC). The gist of the method: as §4

Consider seven molecules from US4205163A, “Tylosin derivatives” (Sanraku-Ocean Co., Ltd., priority 1977, dated 1980).

Converted amounts (≈) assume the structure as drawn. Read-outs that look alike come from different tables or passages of the source.

With `CCC1OC(=O)CC(O)C(C)C(OC2OC(C)C(OC3CC(C)(O)C(OC(=O)CSC4CCCCC4)C(C)O3)C(N(C)C)C2O)C(CC=O)CC(C)C(=O)C=CC(C)=CC1COC1OC(C)C(O)C(OC)C1OC` (stereo not shown) [Compound 40, 4"-cyclohexylthioacetyltylosin], the MIC in [1] is 0.157 µg/mL (≈ 0.146 µM); in assay [2], 0.157 µg/mL (≈ 0.146 µM); in assay [3], 0.157 µg/mL (≈ 0.146 µM); in [4] it was 0.078 µg/mL (≈ 0.0727 µM); in assay [5], 0.78 µg/mL (≈ 0.727 µM); in assay [6], 0.78 µg/mL (≈ 0.727 µM). In addition, the MIC in the assay on Sarcina lutea ATCC 9341 was found to be 0.39 µg/mL (≈ 0.364 µM); in [7], 12.5 µg/mL (≈ 11.7 µM); in [8] it was 0.78 µg/mL (≈ 0.727 µM); in assay [9] it was 25 µg/mL (≈ 23.3 µM); in assay [10], 12.5 µg/mL (≈ 11.7 µM); in assay [11], 6.25 µg/mL (≈ 5.83 µM).

In the case of `CCC1OC(=O)CC(O)C(C)C(OC2OC(C)C(OC3CC(C)(O)C(OC(=O)CSc4ccncc4)C(C)O3)C(N(C)C)C2O)C(CC=O)CC(C)C(=O)C=CC(C)=CC1COC1OC(C)C(O)C(OC)C1OC` (stereo not shown) [Compound 41, 4"-(4-pyridyl)thioacetyltylosin], the MIC in [1] (strain E-11, macrolide resistant, Eiken PPLO Medium, read-out: MIC) came out at 0.313 µg/mL (≈ 0.293 µM); in [2], 0.157 µg/mL (≈ 0.147 µM); in [3] (strain E-5, macrolide resistant, Eiken PPLO Medium, read-out: MIC) it was 0.313 µg/mL (≈ 0.293 µM); in [4], 0.039 µg/mL (≈ 0.0365 µM); in assay [5], 0.39 µg/mL (≈ 0.365 µM); in assay [6], 0.39 µg/mL (≈ 0.365 µM). In addition, the MIC in the assay on Sarcina lutea ATCC 9341 was determined as 0.19 µg/mL (≈ 0.178 µM); in [7], 12.5 µg/mL (≈ 11.7 µM); in assay [8] it was 0.78 µg/mL (≈ 0.731 µM); in assay [9], 12.5 µg/mL (≈ 11.7 µM); in assay [10], 12.5 µg/mL (≈ 11.7 µM); in [11] it was 12.5 µg/mL (≈ 11.7 µM).

Regarding `CCC1OC(=O)CC(OC(C)=O)C(C)C(OC2OC(C)C(OC3CC(C)(O)C(OC(=O)CSc4ccncc4)C(C)O3)C(N(C)C)C2O)C(CC=O)CC(C)C(=O)C=CC(C)=CC1COC1OC(C)C(O)C(OC)C1OC` (stereo not shown) [Compound 42, 3-acetyl-4"-(4-pyridyl)thioacetyltylosin], the MIC in assay [5] is 0.39 µg/mL (≈ 0.352 µM); in [6] it was 0.39 µg/mL (≈ 0.352 µM); in the assay with Sarcina lutea ATCC 9341, 0.19 µg/mL (≈ 0.171 µM); in assay [7] it was 12.5 µg/mL (≈ 11.3 µM); in assay [8] it was 0.39 µg/mL (≈ 0.352 µM); in assay [9], 6.25 µg/mL (≈ 5.63 µM). Moreover, the MIC is 6.25 µg/mL (≈ 5.63 µM) in assay [10] and 3.13 µg/mL (≈ 2.82 µM) in assay [11].

With `CCC1OC(=O)CC(O)C(C)C(OC2OC(C)C(OC3CC(C)(O)C(OC(=O)COc4ccccc4)C(C)O3)C(N(C)C)C2O)C(CC=O)CC(C)C(=O)C=CC(C)=CC1COC1OC(C)C(O)C(OC)C1OC` (stereo not shown) [Compound 44, 4"-phenoxyacetyltylosin], the MIC is 0.78 µg/mL (≈ 0.743 µM) in assay [5]; 0.39 µg/mL (≈ 0.371 µM) in assay [6]; 0.19 µg/mL (≈ 0.181 µM) in the assay with Sarcina lutea ATCC 9341; 25 µg/mL (≈ 23.8 µM) in [7]; 0.39 µg/mL (≈ 0.371 µM) in [8]; 25 µg/mL (≈ 23.8 µM) in [9]. Besides, the MIC amounted to 25 µg/mL (≈ 23.8 µM) in assay [10] and 6.25 µg/mL (≈ 5.95 µM) in [11].

For the molecule `CCC1OC(=O)CC(OC(C)=O)C(C)C(OC2OC(C)C(OC3CC(C)(O)C(OC(=O)COc4ccccc4)C(C)O3)C(N(C)C)C2O)C(CC=O)CC(C)C(=O)C=CC(C)=CC1COC1OC(C)C(O)C(OC)C1OC` (stereo not shown) [Compound 45, 3-acetyl-4"-phenoxyacetyltylosin], the MIC in assay [5] stood at 0.39 µg/mL (≈ 0.357 µM); in assay [6], 0.39 µg/mL (≈ 0.357 µM); with Sarcina lutea ATCC 9341, 0.19 µg/mL (≈ 0.174 µM); in assay [7], 25 µg/mL (≈ 22.9 µM); in assay [8] it was 0.39 µg/mL (≈ 0.357 µM); in assay [9], 25 µg/mL (≈ 22.9 µM). Moreover, the MIC in assay [10] is 100 µg/mL (≈ 91.6 µM); in assay [11], 12.5 µg/mL (≈ 11.4 µM).

On to `CCC1OC(=O)CC(O)C(C)C(OC2OC(C)C(OC3CC(C)(O)C(OC(=O)C(C)Oc4ccccc4)C(C)O3)C(N(C)C)C2O)C(CC=O)CC(C)C(=O)C=CC(C)=CC1COC1OC(C)C(O)C(OC)C1OC` (stereo not drawn) [Compound 46, 4"-α-phenoxypropionyltylosin], for which the MIC in [5] amounted to 0.39 µg/mL (≈ 0.366 µM); in [6], 0.39 µg/mL (≈ 0.366 µM); in the assay with Sarcina lutea ATCC 9341, 0.19 µg/mL (≈ 0.179 µM); in [7] it was 25 µg/mL (≈ 23.5 µM); in assay [8] it was 0.78 µg/mL (≈ 0.733 µM); in assay [9], 50 µg/mL (≈ 47 µM). The MIC in assay [10] came to 25 µg/mL (≈ 23.5 µM); in [11], 12.5 µg/mL (≈ 11.7 µM).

On to `CCC1OC(=O)CC(O)C(C)C(OC2OC(C)C(OC3CC(C)(O)C(OC(=O)COc4ccc5ccccc5c4)C(C)O3)C(N(C)C)C2O)C(CC=O)CC(C)C(=O)C=CC(C)=CC1COC1OC(C)C(O)C(OC)C1OC` (stereo not drawn) [Compound 47, 4"-β-napthoxyacetyltylosin], for which the MIC in [5] amounted to 0.78 µg/mL (≈ 0.709 µM); in [6], 0.78 µg/mL (≈ 0.709 µM); in the assay with Sarcina lutea ATCC 9341, 0.19 µg/mL (≈ 0.173 µM); in assay [7], 25 µg/mL (≈ 22.7 µM); in assay [8], 0.78 µg/mL (≈ 0.709 µM); in assay [9], 25 µg/mL (≈ 22.7 µM). Also, the MIC in assay [10] turned out to be 25 µg/mL (≈ 22.7 µM); in [11], 12.5 µg/mL (≈ 11.4 µM).
